Assay [1] deals with human umbilical vein endothelial cells (HUVEC). The assay is described as follows: Measurement of the intracellular pH (pHi) during reperfusion simulation after acidosis, BCECF fluorescence. The assay is classed as cell-based. The method, then: (§1) All the examples were carried out with human umbilical vein endothelial cells (HUVEC). These comprise primary cell cultures isolated from the umbilical vein.
(§2) For the following examples, the cells were cultivated either on gelatinized glass plates (measurement of the intracellular proton concentration) or on cell culture plates (12-well culture plates, Falcon, N.J., USA; measurement of vWF release) after the first passage.
To measure the intracellular proton concentration (pHi), the HUVECs were loaded with the pH-sensitive fluorescent dye, BCECF-AM (2′,7′-bis(carboxyethyl)-5(6)-carboxyfluorescein). A Deltascan spectrofluorometer (PTI, Hamburg) was employed for the subsequent fluorescence measurement. This measuring system consists essentially of a UV light source, a monochromator, a photon detector and the Felix and Oscar software packages (PTI, Hamburg) for controlling the system via a computer. After alternate excitation with the wavelengths 439.5 nm (pH-independent) and 490 nm (pH-sensitive), the ratio of the measured emissions of the BCECF (ratio) was reported and the pH was found after a calibration. The measuring cell is designed so that the parameters of temperature and carbon dioxide partial pressure in the system are controlled during continuous perfusion. For the reperfusion simulation, the experimental conditions were set at 37° C. and a carbon dioxide partial pressure of 5% or 10% by gassing the system and perfusate.
In the experiment, there was initially preincubation with sodium bicarbonate buffer pHex 6.4 for 60 minutes in order to simulate […] metabolic acidosis. The initiation perfusion was then changed to sodium bicarbonate buffer of pH 7.4 with 10 μM histamine as reperfusion simulation. These control experiments were compared with an experiment in which the NHE inhibitor cariporide was added in a concentration of 10 μM to the reperfusion buffer.

For assay [2] the test system is unchanged. The assay is described as follows: Measurement of vWF release after reperfusion (ELISA of cell supernatant). The assay is classed as cell-based. The method, then: as §1, §2
The measurements were carried out in a Heraeus Heracell incubator. This made it possible to […] the umbilical vein endothelial cells under controlled physiological conditions (temperature 37° C., relative humidity 100%, pCO2 constant at 5%), and to ensure rapid change of different cell culture media.
Said cells were initially incubated with acidotic medium (pH 6.4 composed of the ingredients: medium M199 w/Earle's & amino acids, w/L-glutamine, w/o NaHCO3, w/o Hepes+0.084 g NaHCO3/1) or pH standard medium (pH 7.4 composed of the ingredients: medium M199 w/Earle's & amino acids, w/L-glutamine, w/o NaHCO3, w/o Hepes+2.200 g NaHCO3/1), for one, three or 48 hours. Before starting the reperfusion, samples of supernatant were taken to determine the vWF concentration under acidotic conditions (vWFacidosis) and control conditions (vWFco). To simulate reperfusion, the medium was changed to one with a pH of 7.4 (ingredients: medium M199 w/Earle's & amino acids, w/L-glutamine, w/o NaHCO3, w/o Hepes+2.200 g NaHCO3/1+10 μM histamine) to which the NHE inhibitor cariporide was added in a concentration of 10 μM. Change to the same medium without corresponding addition of inhibitor served as control.
The samples taken from the supernatant were used to determine the vWF concentration. This was done by an ELISA method (enzyme-linked immuno sorbent assay) using specific antibodies. The vWF content of standard human plasma (Behring, Marburg) is calculated using an international standard (2nd International Standard 87/718, National Institute for Biological Standards and Control, London).
For orientation: ELISA stands for enzyme-linked immunosorbent assay.

Each structure is given as a SMILES string. Values joined by “and” are separate entries in the source; they are usually repeats but may differ in a detail not shown here. Identical values can stand only once. “Also recorded” adds a separate entry of the source.

On to `CC(C)c1ccc(C(=O)N=C(N)N)cc1S(C)(=O)=O` [cariporide], for which the “Rate of pH increase, Mean ± SEM” value in assay [1] (10 μM cariporide in reperfusion buffer pH 7.4 with 10 μM histamine, after 60 minutes of acidosis (pHex 6.4), first 30 seconds after reperfusion) is 0.27 ± 0.02 Δ pH / min. The “Rate of pH increase, individual experiments” value in assay [1] (10 μM cariporide in reperfusion buffer pH 7.4 with 10 μM histamine, after 60 minutes of acidosis (pHex 6.4), first 30 seconds after reperfusion, listed as HOE) was 0.30 Δ pH / min and 0.24 Δ pH / min (2×) and 0.23 Δ pH / min and 0.34 Δ pH / min. Moreover, in assay [1] (extracellular pH changed from 6.4 to 7.4, 10 μM cariporide), the “Reduction in the rate of increase in intracellular pH compared with the control (factor)” value is on record as 3.6. In assay [2] (control cells incubated with cariporide (10 μM)), the “Effect on vWF secretion of healthy, non-acidotic control cells (in words)” value is recorded as “no increase or decrease in vWF secretion; also recorded: showed no effect”. In addition, the “vWF secretion relative to control cells (vWFco = 100%), control cells incubated with cariporide (vWFco+HOE)” value in assay [2] (non-acidotic control cells, 10 μM cariporide, 10-minute reperfusion time with stimulation) worked out at 106 ± 3.0%. The “vWF concentration during reperfusion of preacidotic cells in the presence of cariporide (vWFHOE), relative to control (vWFco = 100%)” value in assay [2] (preacidotic cells (pH 6.4), 10 μM cariporide, 10-minute reperfusion time with stimulation, without cariporide 193 ± 8.0%) was determined as 139 ± 16%. Also, the “Reduction of the increased vWF secretion during reperfusion” value in assay [2] (preacidotic cells, 10 μM cariporide) is ~60%.
